Results from publication PMC9381509, “In-vivo pharmacokinetic studies of Dolutegravir loaded spray dried Chitosan nanoparticles as milk admixture for paediatrics infected with HIV” (Scientific Reports, 2022).
≈ marks a conversion by molar mass, not a printed value. Where two headings read alike, the source gives them in different places.

Columns and labels:
[1] = Organ biodistribution of DTG in mice (HPLC); type: in vivo; conditions: mouse, Balb-C mice
Text: (§1) After validating the developed HPLC method, the same was utilized to quantify the drug present in the plasma and organ (lungs, liver, kidney, heart, brain, and uterus) samples collected at predetermined time points. A total of 114 animals (25–30 g) were acquired from the Central Animal Facility (CAF), SASTRA University, Thanjavur after obtaining the ethical approval from Institutional Animal Ethics Committee (IAEC). The animals were randomly divided into four groups (n = 6) for this study. All animals were housed in individual cages in a temperature-controlled facility. The surgical procedures were approved by IAEC at SASTRA University (585/SASTRA/IAEC/RPP). The experiments were performed following the guidelines issued by the Committee for the Purpose of Control and Supervision of Experiments on animals (CPCSEA), Ministry of Environment and Forest, Government of India and Animal Research: Reporting of In Vivo Experiments (ARRIVE). The 2 groups of mice were orally treated with pure DTG and DTG-loaded Chitosan NPs at the dose equivalent to 10 mg/kg[41] along with milk. The 3rd group of animals was treated with DTG at the same dose through an intravenous route to elucidate the absolute bioavailability and the 4th group of animals was reserved as untreated control for comparison. The blood and organ samples were withdrawn from all the experimental mice at 0.5 h, 3.5 h, 7 h, 14 h, 21 h, and 28 h after euthanizing the animal using CO2 inhalation. The concentration of the drug in each sample was determined by the developed HPLC method, followed by the pharmacokinetic parameters and biodistribution pattern evaluation.

[2] = design: method as in earlier work; conditions: mice, single oral administration as suspension, plasma; ref 27 (Lee et al.); cited from earlier work
blood cells = test: Haematological analysis (complete blood cell count) of treated animals; type: in vivo; conditions: Balb-C mice; for Basophils / Eosinophil / HCT / HGB / Lymphocyte / MCH / MCHC / MCV / MPV / Monocytes / Neutrophil / PCT / PDW / PLT / RBC / RDW-CV / RDW-SD / WBC: blood 28 h after administration
Experimental: The counting was made following the method of Beckman Coulter. It measures the changes in electrical resistance produced by non-conductive particles suspended in an electrolyte. The blood sample from the test animals was collected in EDTA tubes and was further suspended through a small orifice along with an electric current. At the sensing end, the suspended particle displaces its volume of electrolyte which was measured as the voltage pulse by the Beckman Coulter. The height of the voltage pulse in proportion to the volume of the blood cell. The white blood cells were quantified based on the VCS technology, where the individual cell volume (V), conductivity (C), and laser light scatter (S) were measured and the scattergram plotted the cell based on the above measurements.

[3] = cited from earlier work
[4] = In vivo plasma pharmacokinetics in Balb-C mice (HPLC); conditions: for AUC(0-t): read-out: AUC0–24 h; for k el: read-out: Ke (converted)
Text: The pharmaceutical grade working standards of Dolutegravir were obtained as a gift from MSN Laboratories Hyderabad, India. The standard calibration of the pure drug in the mobile phase (Water: Acetonitrile: Methanol in 20:40:40 ratio with 0.2% formic acid) and mice plasma was plotted using the developed method. The plasma samples of untreated normal Balb/c mice were obtained from the Central Animal Facility, SASTRA Deemed University (Approval ID: 585/IAEC/RPP), and the plasma samples were spiked with known concentrations (1, 2, 3, 4, 5 and 10 µg/mL) of DTG and allowed to incubate at room temperature for 15 min. The detection was carried out at 260 nm with an injection volume of 20 μL, wherein the flow rate of the mobile phase was maintained at 1.0 mL/min at the column temperature of 35 °C. Moreover, the validation of the analytical method was also performed in accordance with the procedure referred to in the International Council on Harmonization (ICH) guidelines.
as §1

[5] = In-vitro drug release in 0.1 N HCl media by dialysis bag method; type: physicochemical; conditions: 0.1 N HCl medium pH 1.2, dialysis bag, 37 °C
Experimental: The in vitro drug release study of the DTG-loaded Chitosan NPs was compared with the pure DTG in 0.1 N HCl pH 1.2 by dialysis bag method (Dialysis membrane Himedia, cut-off value—12–14 kDa). About 10 mg of pure drug and a similar dose equivalent amount of nanoparticles were taken for the drug release experiments. The test samples were mixed with 0.5 mL of the corresponding media, placed inside the dialysis bag, and immersed in 10 mL media in a vial. The temperature and magnetic stirring speed of the sample were retained at 37 °C ± 2 °C and 200 rpm, respectively throughout the 24 h study period. At every predetermined time point, the 10 mL samples were collected and immediately replaced with the fresh corresponding medium. The concentration of the drug in each sample was quantified by a UV–Visible spectrophotometer. The UV visible spectrophotometer (UV 1800, Shimadzu, Japan) was initialized with λmax of 260 nm. The absorbance of the test solution was recorded using the quartz cuvette (volume-3.5 mL, path length-1.5 cm) and the calculations were made based on the standard calibration curve by following the Beer Lamberts law. […] The drug release modelling was analysed using DD solver Software[36].

[6] = mouse, plasma, 10 mg/kg, intravenous route
[7] = mouse, plasma, oral dose equivalent to 10 mg/kg along with milk
[8] = plasma, oral dose equivalent to 10 mg/kg along with milk

C[C@@H]1CCO[C@H]2Cn3cc(C(=O)NCc4ccc(F)cc4F)c(=O)c(O)c3C(=O)N12 [DTG, Dolutegravir]
AUC ([1]; brain, IV, 10 mg/kg, read-out: AUC of biodistribution of DTG in brain): 2400 ± 330 ng·h/mL | AUC ([1]; brain, oral with milk, 10 mg/kg equivalent, read-out: AUC of biodistribution of DTG in brain): 2600 ± 500 ng·h/mL | AUC ([1]; heart, IV, 10 mg/kg, read-out: AUC of biodistribution of DTG in heart): 2000 ± 380 ng·h/mL | AUC ([1]; heart, oral with milk, 10 mg/kg equivalent, read-out: AUC of biodistribution of DTG in heart): 2100 ± 400 ng·h/mL | AUC ([1]; kidney, IV, 10 mg/kg, read-out: AUC of biodistribution of DTG in kidney): 3800 ± 1300 ng·h/mL | AUC ([1]; kidney, oral with milk, 10 mg/kg equivalent, read-out: AUC of biodistribution of DTG in kidney): 2200 ± 400 ng·h/mL | AUC ([1]; liver, IV, 10 mg/kg, read-out: AUC of biodistribution of DTG in liver): 4600 ± 1200 ng·h/mL | AUC ([1]; liver, oral with milk, 10 mg/kg equivalent, read-out: AUC of biodistribution of DTG in liver): 7200 ± 1400 ng·h/mL | AUC ([1]; lungs, IV, 10 mg/kg, read-out: AUC of biodistribution of DTG in lungs): 4300 ± 680 ng·h/mL | AUC ([1]; lungs, oral with milk, 10 mg/kg equivalent, read-out: AUC of biodistribution of DTG in lungs): 2500 ± 400 ng·h/mL | AUC ([1]; uterus, IV, 10 mg/kg, read-out: AUC of biodistribution of DTG in uterus): 5500 ± 1200 ng·h/mL | AUC ([1]; uterus, oral with milk, 10 mg/kg equivalent, read-out: AUC of biodistribution of DTG in uterus): 1500 ± 400 ng·h/mL | Cmax [2]: 50000 ng/mL | Basophils (blood cells; IV): 0.01 ± 0.02 10^3/µL | Eosinophil (blood cells; IV): 0.06 ± 0.08 10^3/µL | HCT (blood cells; IV): 55.83 ± 17.67% | HGB (blood cells; IV): 13.70 ± 2.95 g/dL | Lymphocyte (blood cells; IV): 12.83 ± 8.46 10^3/µL | MCH (blood cells; IV): 16.23 ± 1.46 pg | MCHC (blood cells; IV): 25.27 ± 3.33 g/dL | MCV (blood cells; IV): 64.47 ± 2.75 fL | MPV (blood cells; IV): 6.03 ± 0.15 fL | Monocytes (blood cells; IV): 0.10 ± 0.07 10^3/µL | Neutrophil (blood cells; IV): 5.15 ± 1.74 10^3/µL | PCT (blood cells; IV): 0.50 ± 0.18% | PDW (blood cells; IV): 15.23 ± 0.32 | PLT (blood cells; IV): 617.00 ± 27.89 10^3/µL | RBC (blood cells; IV): 8.60 ± 2.47 10^6/µL | RDW-CV (blood cells; IV): 15.37 ± 1.11% | RDW-SD (blood cells; IV): 40.60 ± 4.25 fL | WBC (blood cells; IV): 18.14 ± 10.24 10^3/µL | Basophils (blood cells; oral with milk): 0.00 10^3/µL | Eosinophil (blood cells; oral with milk): 0.04 ± 0.03 10^3/µL | HCT (blood cells; oral with milk): 63.77 ± 1.96% | HGB (blood cells; oral with milk): 15.10 ± 0.72 g/dL | Lymphocyte (blood cells; oral with milk): 12.30 ± 1.67 10^3/µL | MCH (blood cells; oral with milk): 15.57 ± 0.15 pg | MCHC (blood cells; oral with milk): 23.67 ± 0.15 g/dL | MCV (blood cells; oral with milk): 65.90 ± 4.10 fL | MPV (blood cells; oral with milk): 5.97 ± .06 fL | Monocytes (blood cells; oral with milk): 0.15 ± 0.06 10^3/µL | Neutrophil (blood cells; oral with milk): 5.32 ± 1.71 10^3/µL | PCT (blood cells; oral with milk): 0.52 ± 0.07% | PDW (blood cells; oral with milk): 15.17 ± 0.15 | PLT (blood cells; oral with milk): 674.67 ± 42.91 10^3/µL | RBC (blood cells; oral with milk): 9.69 ± 0.48 10^6/µL | RDW-CV (blood cells; oral with milk): 15.47 ± 1.58% | RDW-SD (blood cells; oral with milk): 41.73 ± .90 fL | WBC (blood cells; oral with milk): 17.81 ± 3.38 10^3/µL | toxicity to the blood cells (haematology versus untreated control) (blood cells; oral and IV administration, no statistically significant difference to control): non-toxic to the blood cells | aqueous solubility ([3]; 25 °C, no ref printed at the value): 95 µg/mL (≈ 227 µM) | BCS class ([3]; ref not given): BCS class II | Cmax ([4]; Balb-C, mouse, plasma, iv, 10 mg/kg, plasma, 10 mg/kg, intravenous route, read-out: Cmax): 29300 ± 4010 ng/mL | Cmax ([4]; Balb-C, mouse, plasma, po, 10 mg/kg, plasma, oral dose equivalent to 10 mg/kg along with milk, read-out: Cmax): 29300 ± 4010 ng/mL | MRT [4, 6]: 12.07 ± 0.05 h | Tmax [4, 6]: 7 h | half-life [4, 6]: 10.5 ± 1.1 h | AUC(0-t) [4, 6]: 411000 ± 91000 ng·h/mL | clearance ([4]; mouse, plasma, 10 mg/kg, intravenous route, read-out: Clearance (converted)): 8.17 mL/min | k el [4, 6]: 1.81e-05 s⁻¹ | Vd ([4]; mouse, plasma, 10 mg/kg, intravenous route, read-out: Vd): 1.87 ± 0.81 L/kg | AUC ([4]; mouse, plasma, 10 mg/kg, oral): 405000 ± 7000 ng·h/mL | MRT [4, 7]: 10.1 ± 0.93 h | Tmax [4, 7]: 7 h | half-life [4, 7]: 11.7 ± 1.6 h | AUC(0-t) [4, 7]: 405000 ± 7000 ng·h/mL | k el [4, 7]: 1.64e-05 s⁻¹ | volume of distribution (Vd) ([4]; orally administered): 4.36 ± 0.78 L | Ka ([4]; plasma, 10 mg/kg, intravenous route): 0.26 h⁻¹ | Cmax [4, 8]: 30150 ± 8060 ng/mL | Ka [4, 8]: 0.48 h⁻¹ | Vd [4, 8]: 4.36 ± 0.78 L/kg | clearance [4, 8]: 8 ± 5.5 mL/min | time taken to release 80% of the drug (T80) [5]: 20 h
